Columns and labels:
human ALR2 = molecular target: T1, human ALR2 (Homo sapiens, UniProt P15121); assay: ALR2 inhibition (in vitro reduction of D,L-glyceraldehyde); format: biochemical
T1 construct: purchased WAKO Pure Chemical Industries, Ltd. (Japan); host or cells: baculovirus-insect cell expression system
Description: Human ALR2 was purchased from WAKO Pure Chemical Industries, Ltd. (Japan), which was purified from the culture medium of baculovirus-insect cell expression system. […] ALR2 inhibition was determined spectrophotometrically according to the procedure described previously.

[1] = Stability in DMEM containing 5% FBS (RP-HPLC); format: in vitro ADME; conditions: 37 °C, 12 h incubation
Description: Predicted from its structure, the stability of 5f will be good and the toxicity will be low. […] After 12 h incubation, 86% of 5f remained intact.
The sample was incubated in high-glucose Dulbecco’s modified Eagle’s medium (DMEM) containing 5% fetal calf serum (FBS) for a period of 48 h. Analyses were scheduled at 0.5, 1.0, 4.0, 8.0, 12.0, 24.0, and 48.0 h. Reverse-phase high performance liquid chromatography (RP-HPLC) was performed on a Cosmosil column (C18, […], 4.6 × 250 mm) using an LC-100 fluid unit (Shanghai Wufeng Inc., China) with a tunable LC-100 UV detector. The eluent was various percentages of methanol containing pure water (flow rate: 1.0 ml/min; λ: 254 nm). The experiments were repeated at least 3 times and compared with the control experiment. The results were shown in Supporting Infromation.

chick embryo = assay: Chick embryo model of hyperglycemia: mortality, NTD rate, body weight; format: in vivo; conditions: glucose 0.4 mmol/egg
Description: In order to evaluate further the potential of 5f as an agent to treat diseases caused by high glucose inside the system, a chick embryo model of treatment with high glucose was set up.
Fertilized leghorn eggs were purchased from the Avian Farm of the South China Agriculture University (Guangzhou, China). Before the injection of glucose (Sigma–Aldrich, MO, USA), the eggs were incubated in a humidified incubator (Grumbach, Germany) at 37 °C with 60% humidity until the embryos reached the desired stage. […] Glucose was dissolved in 200 μL chicken saline and injected on EDD 1. Mortality, abnormality and body weight measurements were made on EDD 5. Embryos were removed from their eggs and weighed. The percent mortality was measured by counting the number of dead versus all embryos. The rate of NTD of the embryos was assessed by the number of NTD versus survival embryos.

ALR2 = assay: AR (ALR2) activity in glucose-treated embryos (chicken AR ELISA kit); format: in vivo; conditions: glucose-treated chick embryos, EDD 5, dose 1 μM
Description: As expected, treatment of 5f decreased ALR2 activity in a dose-dependent manner. […] However, EDA, which is a clinical radical scavenger, was shown no effect on the inhibition of ALR2.
Embryos on EDD 5 were homogenized with chicken saline and centrifuged (4 °C, 10000 rpm, 10 min). The supernatant was used for measuring AR activity in the sample. A chicken AR ELISA kit (Jianglai Biotechnology, China) were used for detection. The concentration of AR in the samples was then determined by comparing the OD of the samples to the standard curve. The sorbitol contents of the chick embryo were determined by a Sorbitol Colorimetric Assay Kit (BioVision, USA). In the assay, sorbitol is oxidized to fructose with the proportional development of intense color with an absorbance maximum at 560 nm.

[2] = test system: oxidative stress (ROS, MDA, ORAC); assay: ROS generation, MDA and ORAC level in chick embryos; format: in vivo; conditions: glucose-treated chick embryos
Source text: It has been reported that hyperglycemia increased the production of ROS. Blocking the generation of ROS could at least partially prevent the possible damage of hyperglycemia. No doubt, oxidative stress will be induced in glucose treated embryos. This conclusion was confirmed by the determination of ROS and malondialdehyde (MDA) levels, and the anti-oxidation ability in chick embryos on EDD 5. […] However, treatment of 5f decreased both levels of ROS and MDA in a dose-dependent manner.
In addition, the ORAC level is indicative of the anti-oxidative capacity.
ROS generation ratios in the eyes of EDD 5 chick embryos were detected with 5 μmol 2′,7′-dichlorofluorescein-diacetate (DCFH-DA, Sigma-Aldrich). The peroxide content was determined by measuring thiobarbituric-acid-reactive substances (TBARS) with a commercial MDA kit (Nanjing Jiancheng Institute of Biotechnology, Nanjing, China). The procedures for the ORAC assay were modified from the previously described method. The automated ORAC assay was carried out on a decay of the fluorescein signal and determined with an excitation/emission filter pair of 485/527 nm in a GENios Lueifcrase microplate reader (TECAN) at 37 °C. Final results were calculated on the basis of the difference in the area under the fluorescein decay curve between the blank and each sample.

[3] = Plasma glucose in chick embryos; format: in vivo; conditions: glucose-treated chick embryos, EDD 5
Description: Figure 4 5f restored neural tube development and marker expression in chick embryos on EDD 5. Glucose concentration (A) and Pax3 protein expression (B) were determined in chick embryos. The plasma glucose concentration was measured using a glucose oxidase-coupled spectrophotometric assay kit. Proteins were detected using the monoclonal antibody anti-Pax3 diluted 1:1000 (DSHB, USA) and visualized using anti-mouse IgG conjugated with horseradish peroxidase (HRP) and Pierce ECL Western Blotting Substrate (Thermo Fisher Scientific, USA) as the substrate of HRP. […] Values were expressed as mean ± SD in each group (n = 10). *P < 0.05, **P < 0.01 vs. control. ^#P < 0.05, ^##P < 0.01 vs. glucose.
The ventricles of embryos were punctured with a 20-gauge needle. At this early embryonic age, 30–40 μL of blood was obtained from the embryos on each EDD 5. The blood containing heparin was centrifuged at 3000 rpm for 15 min. The plasma glucose concentration was measured using a glucose oxidase-coupled spectrophotometric assay kit obtained from Sigma Chemical Co. (St. Louis, MO, USA) according to the manufacturer’s instructions.

CC(=O)N[C@H](COCc1ccccc1)C(=O)NCCCNC(=O)/C(C#N)=C/c1ccc(O)cc1 [Compound 5f, (R,E) - N - (3-(2-acetamido-3-(benzyloxy)propanamido)propyl)-2-cyano-3-(4-hydroxyphenyl)acrylamide]
IC50 (human ALR2; human ALR2, D,L-glyceraldehyde as substrate, read-out: IC50 (ALR2 inhibition)): 0.0727 ± 0.0016 µM
ALR2 inhibition activity relative to 5d (human ALR2; ratio of inhibition activity vs 5d): about 5 times
remained intact [1]: 86%
Body weight (chick embryo; EDD 5, dose 10 nM (CL)): 291.3 ± 10.2 mg
Death (/n) (chick embryo; EDD 5, dose 10 nM (CL)): 35.0%
NTD (/survival) (chick embryo; EDD 5, dose 10 nM (CL)): 46.20%
Body weight (chick embryo; EDD 5, dose 100 nM (CM)): 295.9 ± 13.2 mg
Death (/n) (chick embryo; EDD 5, dose 100 nM (CM)): 30.0%
NTD (/survival) (chick embryo; EDD 5, dose 100 nM (CM)): 35.7%
Body weight (chick embryo; EDD 5, dose 1 μM): 307.9 ± 10.5 mg
Death (/n) (chick embryo; EDD 5, dose 1 μM): 25.0%
NTD (/survival) (chick embryo; EDD 5, dose 1 μM): 20.0%
ALR2 activity in embryo (ALR2): close to that of the control
ORAC level (anti-oxidative capacity) of embryo ([2]; EDD 5): recovered
MDA level in embryo ([2]; EDD 5, dose 1 μM): to a normal state
ROS level in embryo ([2]; EDD 5, dose 1 μM): to a normal state
plasma glucose level [3]: did not lower

From PMC4842970, “Bioactivity Focus of α-Cyano-4-hydroxycinnamic acid (CHCA) Leads to Effective Multifunctional Aldose Reductase Inhibitors” (Scientific Reports, 2016)
